Results from PubChem BioAssay AID1645868 (Buhrlage Lab, Dana-Farber Cancer Institute and Novartis …, 2021).
Active and inactive are the calls of the source.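 The calls were made as follows: active = maximal percent inhibition of the deubiquitinase OTUD3 of at least 30% across the tested doses; inactive = the rest.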

Molecular target: OTU domain-containing protein 3 (Homo sapiens) (UniProt Q5T2D3)
Assay: Validation of screening hits, potency titration, in vitro enzymatic, OTU domain-containing protein 3 DUB inhibitors (AID 1645868)
Conditions: purified OTUD3, ubiquitin-rhodamine cleavage fluorescence, 2 h

Chain of OTU domain-containing protein 3 (Homo sapiens) (Q5T2D3 whole entry, looked up, the tested form may be a part): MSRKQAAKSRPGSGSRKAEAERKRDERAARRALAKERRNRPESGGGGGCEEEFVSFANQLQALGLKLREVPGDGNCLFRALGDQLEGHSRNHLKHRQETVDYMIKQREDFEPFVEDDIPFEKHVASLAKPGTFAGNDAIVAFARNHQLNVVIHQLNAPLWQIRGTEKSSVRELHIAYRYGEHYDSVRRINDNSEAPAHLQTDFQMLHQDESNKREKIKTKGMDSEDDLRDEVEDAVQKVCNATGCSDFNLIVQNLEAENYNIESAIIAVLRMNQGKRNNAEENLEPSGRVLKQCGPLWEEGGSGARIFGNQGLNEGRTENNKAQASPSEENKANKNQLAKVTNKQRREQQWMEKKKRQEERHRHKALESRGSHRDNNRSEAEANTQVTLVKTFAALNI

| IC50 | Compound |
| --- | --- |
| 2.63 µM | COC1=CC(=O)c2c(O)c3c(c(C)c2C1=O)C[C@@]1(O)[C@H](O[C@H]2CC[C@H](O[C@H]4C[C@@](C)(O)[C@H](OC(=O)c5c(C)ccc(C)c5O)[C@H](C)O4)[C@@H](C)O2)C(=O)C(C(C)=O)=C(O)[C@@]1(O)C3=O |
| > 50 µM (inactive) | O=C(COc1ccc(Cl)cc1)N1CCc2cc3ccccc3nc21 |
| > 50 µM (inactive) | O=C(CSc1cn(Cc2ccccc2)c2ccccc12)Nc1ccc2c(c1)OCCO2 |
| > 50 µM (inactive) | CC(C)(C)N=C1Nc2ncccc2NC12CCCN(C(=O)c1ccccc1)C2 (stereo not drawn) |
| > 50 µM (inactive) | CCC(=O)OCc1cnc(C)c2oc(=O)c(-c3nc(-c4ccccc4)no3)cc12 |
| > 50 µM (inactive) | Cn1c(SCCOc2ccc(Cl)cc2)nnc1-c1ccc2c(c1)OCCO2 |
| > 50 µM (inactive) | CCOc1ccc(-c2cc3nc(C4CCN(C(=O)OC(C)(C)C)CC4)c(C(=O)Nc4cc(F)ccc4F)cn3n2)cc1 |
| > 50 µM (inactive) | COc1cccc(NC(=O)C2CCN(C(=O)c3cc(-c4cccnc4)n[nH]3)CC2)c1 |
| 2.13 µM | CC(=O)C1=C(O)[C@]2(O)C(=O)c3c(c(C)c4ccc(C)c(O)c4c3O)C[C@H]2[C@@H](N)C1=O |
| 31.2 µM | O=C(Cn1cc(C(=O)C2CC2)c2ccccc21)NCc1ccc2c(c1)OCO2 |
| > 50 µM (inactive) | COc1ccccc1NC(=O)c1nn(-c2cccc(F)c2)c(OC)cc1=O |
| > 50 µM (inactive) | Cc1cnnn1-c1ccc(C(=O)Nc2cc(Cl)ccc2Cl)cc1 |
| 12.7 µM | O=C(COC(=O)c1ccc(Cl)cc1)Nc1ccc2[nH]c(=O)[nH]c2c1 |
| > 50 µM (inactive) | COc1cccc(N2CCN(C(=O)c3cc(NC(C)=O)cc4nc(C)ccc34)CC2)c1 |
| > 50 µM (inactive) | CCOC(=O)c1cccc(NC(=O)Nc2cccn3nc(C)nc23)c1 |
| > 50 µM (inactive) | COc1ccccc1-c1nc(Cn2nnc(C(=O)Nc3cc(C)cc(C)c3)c2N)c(C)o1 |
| > 50 µM (inactive) | O=C(NCc1nc(-c2ccc3c(c2)[nH]c(=O)n3C2CCCC2)no1)c1ccccc1 |
| > 50 µM (inactive) | CC1CCN(S(=O)(=O)c2ccc3[nH]cc(C(=O)NCc4ccco4)c(=O)c3c2)CC1 |
| > 50 µM (inactive) | COc1ccccc1C(=O)N1CCC(S(=O)(=O)c2ccc(-c3ccco3)cc2)CC1 |
| 26.6 µM | Cc1[nH]nc(NC(=O)C2COc3ccccc3O2)c1-c1ccccc1 (stereo not drawn) |
| > 50 µM (inactive) | CSc1nccc(-c2ccc(F)cc2)c1C#N |
| > 50 µM (inactive) | O=C(OCc1cccc(Cl)c1)c1ccc2ccccc2n1 |
| > 50 µM (inactive) | O=C(Cn1cnc(-c2noc(-c3ccncc3)n2)c1)N1CCN(c2ccccc2F)CC1 |

| IC50 | Compound |
| --- | --- |
| > 50 µM (inactive) | Cc1ccc2c(c1)[C@]1(C(=O)N2)[C@@H]2C(=O)N(c3cccc(C(F)(F)F)c3)C(=O)[C@@H]2C2CCCN21 (stereo partly drawn) |
| > 50 µM (inactive) | O=C(Cc1c[nH]c2ccccc12)Nc1nc2ccccc2s1 |
| > 50 µM (inactive) | O=C(CSc1nncc2ccccc12)Nc1ccc2c(c1)OCO2 |
| 28.7 µM | COc1ccc(C(=O)Nc2n[nH]c(C)c2-c2cccc(C)c2)c(OC)c1 |
| > 50 µM (inactive) | Cc1ccccc1NC(=O)c1ccn(COc2ccc(Cl)cc2)n1 |
| > 50 µM (inactive) | Cc1cc(-c2ccnc3c(C#N)cnn23)c(C)s1 |
| > 50 µM (inactive) | CCc1nc(-c2cc(C(=O)N3CCOCC3)c3ccccn23)cs1 |
| > 50 µM (inactive) | Cc1cccc(NC(=O)CSc2ncnc3c2sc2nc(CC(C)C)c4c(c23)CCC4)c1 |
| > 50 µM (inactive) | Cc1ccc(-n2cc3c(N4CCCC(C(=O)NCC5CCCCC5)C4)ncnc3n2)cc1 (stereo not drawn) |
| > 50 µM (inactive) | O=S1(=O)CCN(CC2CCCO2)c2c(Oc3ccccc3)nc(F)c(Cl)c21 (stereo not drawn) |
| > 50 µM (inactive) | O=c1ccc(-c2noc(Cc3cccc(Cl)c3)n2)c[nH]1 |
| > 50 µM (inactive) | COc1ccc(/C=C/C(=O)Nc2ccc3c(c2)OCCO3)cc1Br |
| > 50 µM (inactive) | Cc1cc(=O)oc2cc(OCC(=O)Nc3cc(Cl)ccc3N3CCOCC3)ccc12 |
| > 50 µM (inactive) | CCOc1ccc(C2=NCCNC3=C2C(c2ccccc2)N(c2ccccc2)C3=O)cc1 (stereo not drawn) |
| 21.8 µM | CC(=O)Nc1ccc(NC(=O)c2cc(-c3cc(C)cc(C)c3O)n[nH]2)cc1 |
| > 50 µM (inactive) | CN(c1ccccc1)c1nc(=O)n(CC(=O)Nc2ccc3c(c2)OCCO3)c2ccccc12 |
| 32.9 µM | CCCC(=O)c1c[nH]c(C(=O)NCc2ccc(F)cc2)c1 |
| 21.7 µM | COc1ccc(CCN2COc3c(cc(Cl)c4cccnc34)C2)cc1OC |
| > 50 µM (inactive) | O=C(NC(Cc1ccccc1)c1nc2ccccc2[nH]1)C1CC1 (stereo not drawn) |
| > 50 µM (inactive) | Cc1ccc(-c2noc(-c3nnc(SCC(=O)NC4CCCC4)n3C)n2)cc1 |
| > 50 µM (inactive) | COc1ccc2c(C)c(CC(=O)N3CCC[C@H]3C(=O)O)c(=O)oc2c1C |
| > 50 µM (inactive) | Cc1nc(C(=O)Nc2cccc(Cl)c2Cl)nn1-c1cc(Cl)cc(Cl)c1 |
| > 50 µM (inactive) | CC(C(=O)Nc1ccccc1)n1cnc2nc(N3CCCCC3)ncc2c1=O (stereo not drawn) |

| IC50 | Compound |
| --- | --- |
| 16.3 µM | Cc1cc(=O)n(CC(=O)Nc2ccccc2F)c(Nc2ccc(F)cc2)n1 |
| > 50 µM (inactive) | CCc1ccc(C2c3c(oc4ccccc4c3=O)C(=O)N2c2nncs2)cc1 (stereo not drawn) |
| > 50 µM (inactive) | O=C(Cn1ncc2c(N3CCCCCC3)ncnc21)NCc1ccccc1 |
| > 50 µM (inactive) | CO[C@H]1/C=C/OC2(C)Oc3c(C)c(O)c4c(c3C2=O)C2(C=C(NC(=O)/C(C)=C\C=C\[C@H](C)[C@H](O)[C@@H](C)[C@@H](O)[C@@H](C)[C@H](OC(C)=O)C1C)C4=O)OCC(=O)O2 (stereo partly drawn) |
| > 50 µM (inactive) | CC1=CN2C(=N)/C(=C/c3cn(Cc4ccc(Cl)cc4)c4ccccc34)C(=O)N=C2S1 |
| > 50 µM (inactive) | COc1c2nc3ccccc3oc-2cc(=O)c1OC |
| > 50 µM (inactive) | CC(C)N1CC[C@@H]2[C@H](C1)CN2C(=O)Nc1cccc(F)c1 |
| > 50 µM (inactive) | O=C(CSc1nnc(-c2ccncc2)n1Cc1ccccc1)c1ccc2[nH]c(O)cc2c1 |
| > 50 µM (inactive) | CCOC(=O)c1cnn(-c2ccc(C(=O)Nc3ccc(C)c(Cl)c3)cc2)c1N |
| 22.4 µM | COc1cccc(N2CCN(C(=O)Nc3ccc4c(c3)NC(=O)CO4)CC2)c1 |
| 35.4 µM | O=C(CNC(=O)c1cccc(F)c1)Nc1nc2ccccc2[nH]1 |
| 20.9 µM | Cc1cccc(NC(=O)CN2C(=O)COc3cc(S(=O)(=O)N4CCCC4)ccc32)c1C |
| 16.9 µM | COc1ccc(C)cc1NC(=O)C1CC(=O)Nc2nc(SCc3ccccc3)nn21 (stereo not drawn) |
| > 50 µM (inactive) | NS(=O)(=O)c1ccc(Cl)c(C(=O)OCc2csc(Nc3ccccc3)n2)c1 |
| > 50 µM (inactive) | CCOc1ccccc1C(=O)Nc1ccc2c(c1)Sc1ncccc1C(=O)N2C |
| 30.7 µM | CC(C)CCN1C(=O)C2C(C(=O)Nc3ccc(Oc4ccccc4)cc3)C3C=CC2(O3)C1C(=O)NC1CCCCC1 (stereo not drawn) |
| > 50 µM (inactive) | O=C(CCCc1c[nH]c2ccccc12)Nc1ccc2c(c1)OCCO2 |
| > 50 µM (inactive) | Cc1ccccc1NC(=O)Cn1cncc(-c2nc(-c3ccccc3)cs2)c1=O |
| > 50 µM (inactive) | COc1ccc(OC)c(NC(=O)c2ccc(-n3nnnc3SC)cc2)c1 |
| > 50 µM (inactive) | O=C(NCc1ccc(F)cc1)C1CCN(c2cnc(N3CCCCC3)nc2)CC1 |
| 29.8 µM | COc1ccc(NC(=O)c2ccccc2OCC(=O)Nc2ccccc2C(F)(F)F)c(C)c1 |
| > 50 µM (inactive) | CCn1c(Cn2cccn2)nc2cc(NC(=O)c3ccc(F)cc3)ccc21 |
| 21 µM | Cc1c(C)n(-c2ccccc2)c2ncn(CC(=O)NC(C)c3ccccc3)c(=O)c12 (stereo not drawn) |

| IC50 | Compound |
| --- | --- |
| > 50 µM (inactive) | Cc1sc(-c2ccc(Cl)nc2)nc1OC(=O)c1ccc(F)cc1F |
| 45.1 µM | CCOc1ccc(C(=O)Cn2c(=O)n(CC3CCCO3)c(=O)c3cc(OC)c(OC)cc32)cc1Cl (stereo not drawn) |
| 49.8 µM | Cc1ccc(NC(=O)CCC(=O)Nc2ccc3nc(N4CCCCC4)cc(C)c3c2)c(Br)c1 |
| > 50 µM (inactive) | CC(C)CCn1c(=O)c2ccccc2n2c(CCC(=O)NC3CCCCCC3)nnc12 |
| > 50 µM (inactive) | O=C(Cn1cncc(-c2nc(-c3ccccc3)cs2)c1=O)NC1CCCC1 |
| > 50 µM (inactive) | c1csc(-c2nc(Nc3ccc4c(c3)CCC4)c3ccccc3n2)c1 |
| > 50 µM (inactive) | CC(=O)c1ccc(NC(=O)c2nc3ccccc3nc2N2CCOCC2)cc1 |
| 27.3 µM | O=C(C(c1ccccc1)c1ccccc1)N1CCC(c2nc3c(nnn3Cc3c(F)cccc3Cl)c(=O)[nH]2)CC1 |
| > 50 µM (inactive) | Cc1nc2cc(NC(=O)C3CN(C(=O)c4cnccn4)C3)ccc2s1 |
| > 50 µM (inactive) | Cc1cccc(C(=O)NCc2nc3ccccc3n2Cc2ccccc2C)c1 |
| 25.4 µM | Cc1ccccc1OCCSc1nc2ccccc2n1CC(=O)NC1CC1 |
| 37.6 µM | O=C(Nc1cccc(C(F)(F)F)c1)N1CCCn2c(nc3ccccc32)C1 |
| 26.8 µM | c1ccc(-c2nc(-c3nnn(-c4ccccc4)c3-c3ccncc3)no2)cc1 |
| > 50 µM (inactive) | COc1ccccc1CNC(=O)c1ccc(CSc2nc3ccncc3n2Cc2ccccc2)cc1 |
| > 50 µM (inactive) | C=C1CCC2[C@](C)(CCC[C@]2(C)C(=O)OC)[C@H]1CCc1ccoc1C[N+](C)(C)Cc1ccccc1 (stereo partly drawn) |
| 25.1 µM | Cc1nn(-c2ccc(F)cc2)cc1-c1noc(C(=O)NCc2ccccn2)n1 |
| > 50 µM (inactive) | COc1cccc(/C=C/c2nc(C#N)c(N3CCN(C(=O)c4cccs4)CC3)o2)c1 |
| 26.5 µM | Cc1ccc(-n2cc(C(=O)NCc3cccnc3)nn2)cc1C |
| 33.8 µM | O=C(CNC(=O)c1cc2ccccc2o1)Nc1ccc2c(c1)OCCO2 |
| > 50 µM (inactive) | O=c1c2ccccc2ncn1C1CCN(S(=O)(=O)c2ccccc2F)CC1 |
| > 50 µM (inactive) | O=C(NCCc1ccccn1)c1cn2ccnc(-c3ccc(F)cc3)c2n1 |
| 40.7 µM | CCc1ccc(-c2nc(SCC(=O)Nc3ccc4[nH]c(=O)[nH]c4c3)n[nH]2)cc1 |
| > 50 µM (inactive) | Cc1ccc(C)c(NC(=O)CSc2nnc(-c3ccccn3)n2Cc2ccco2)c1 |

| Compound | IC50 |
| --- | --- |
| O=C1C=CC(O)C2C1CC13SSC4(CC5C(=O)C=CC(O)C5N4C1=O)C(=O)N23 (stereo not drawn) | > 50 µM (inactive) |
